Where two headings read alike, the source gives them in different places.
What was measured:
[1] = target: T1, polyamine binding site of the NR2B subunit of the NMDA receptor (Homo sapiens, UniProt Q05586+Q13224); test: Filtration-based receptor binding assay with [3H]-Ifenprodil as radioligand; conditions: 5 nM [3H]-Ifenprodil, membrane homogenates of mouse L(tk-) cells transfected with NR1-1a/NR2B, 180 min at 37 °C, read-out: affinity to the NR2B binding site of the NMDA receptor
T1 construct: expressed in transfected cells; host or cells: mouse L(tk-) cells, dexamethasone-induced; gift from D. Steinhilber, University of Frankfurt
Description: Mouse L(tk-) cells stably transfected with the dexamethasone-inducible eukaryotic expression vectors pMSG NR1-1a, pMSG NR2B in a 1:5 ratio were a generous gift from D. Steinhilber (Department of Pharmacy, University of Frankfurt, Germany). The transformed L(tk-) cells were grown in Modified Earl's Medium (MEM) containing 10% of standardized FCS (Biochrom AG, Berlin, Germany). The expression of the NMDA receptor at the cell surface was induced after the cell density of the adherent growing cells had reached approximately 90% of confluency. For the induction, the original growth medium was replaced by growth medium containing 4 µM dexamethasone and 4 µM ketamine (final concentration). After 24 h the cells were harvested by trypsination and pelleted (10 min, 5,000 x g, Hettich Rotina 35R centrifuge, Tuttlingen, Germany).
For the binding assay, the cell pellet was resuspended in PBS buffer and the number of cells was determined using an improved Neubauer's counting chamber (VWR, Darmstadt, Germany). Subsequently, the cells were lysed by sonication (4 °C, 6 x 10 s cycles with breaks of 10 sec). The resulting cell fragments were centrifuged with a high performance cool centrifuge (20,000 x g, 4 °C, Sorvall RC-5 plus, Thermo Scientific). The supernatant was discarded and the pellet resuspended in a defined volume of phosphate buffer saline (PBS) yielding cell fragments of approximately 500,000 cells/mL. The suspension of membrane homogenates was sonicated again (4 °C, 2 x 10 s cycles with a break of 10 min) and stored at -80 °C.
The cell membrane suspension was added last. All experiments were carried out in triplicates. The incubation was terminated by rapid filtration through filtermats using a cell harvester (MicroBeta FilterMate-96 Harvester, Perkin Elmer). Prior to harvesting, the filtermats were presoaked in 0.5% aqueous polyethylenimine for 2 h at room temperature. After washing each well five times with 300 µL of water, the filtermats were dried at 95 °C. Subsequently, the solid scintillator was placed on the filtermat and melted at 95 °C. After 5 min, the solid scintillator was allowed to solidify at room temperature. The bound radioactivity trapped on the filters was counted in the scintillation analyzer (Microbeta Counter, Perkin Elmer). The overall counting efficiency was 20%.
The protein concentration was determined by the method of Bradford, modified by Stoscheck. The Bradford solution was prepared by dissolving 5 mg of Coomassie Brilliant Blue G 250 in 2.5 mL EtOH (95%, v/v). 10 mL deionized H2O and 5 mL phosphoric acid (85%, m/v) were added to this solution, the mixture was stirred and filled up to a total volume of 50.0 mL with deionized water. The calibration was carried out using bovine serum protein as a standard in concentrations between 0.1 and 10 mg /L. In a 96-well standard multiplate, 10 µL of the calibration solution or 10 µL of the membrane receptor preparation were mixed with 190 µL of the Bradford solution, respectively.
Kd and Bmax were calculated as described in the "Data analysis" section.
Data analysis was performed with Graph Pad Prism® Software, Version 3.0 (Graph Pad Software Inc., San Diego, CA, USA).
Saturation analyses were made by nonlinear regression using the "one-site-saturation" calculation method. The IC50 values of the test compounds used in the competitive binding experiments were determined by nonlinear regression using the "one-site-competition" calculation method. […] The Ki values are given as mean values from three independent experiments ± Standard Error of the Mean (S.E.M).

σ1 receptor = target: T2, σ1 receptor (Cavia porcellus, UniProt Q60492); test: Receptor binding assay with [3H]-(+)-pentazocine on guinea pig brain membranes; conditions: for inhibition of the σ1 receptor only at concentrations above: given as above 1 µM or 10 µM
T2 construct: tissue Harlan Winkelmann; host or cells: guinea pig brain membranes
Description: (§1) The pig brains were a donation of the local slaughterhouse (Coesfeld, Germany). Homogenizer: Elvehjem Potter (B. Braun Biotech International, Melsungen, Germany). Centrifuge: High-speed cooling centrifuge model Sorvall RC-5C plus (Thermo Fisher Scientific, Langenselbold, Germany). Filter: Printed Filtermat Typ A and B (Perkin Elmer LAS, Rodgau-Jügesheim, Germany), presoaked in 0.5% aqueous polyethylenimine for 2 h at room temperature before use. […] Before filling to the final volume of 1000 mL, the pH of the solution was adjusted to pH=7.5 by dropwise addition of 1M HCl. The filtration was carried out with a MicroBeta FilterMate-96 Harvester (Perkin Elmer). The scintillation analysis was performed using Meltilex (Typ A or B) solid scintillator (Perkin Elmer). The solid scintillator was melted on the filtermat at a temperature of 95 °C for 5 minutes. After solidifying of the scintillator at room temperature, the scintillation was measured using a MicroBeta Trilux scintillation analyzer (Perkin Elmer). The overall counting efficiency was 20 %. All experiments were carried out in triplicates using standard 96-well-multiplates (Diagonal, Muenster, Germany). […] The Ki-values are given as mean value ± SEM from three independent experiments.
Determination of the affinity to the σ1 receptor
Five guinea pig brains (Harlan Winkelmann, Borchen, Germany) were homogenized with the potter (500-800 rpm, 10 up-and-down strokes) in 6 volumes of cold 0.32 M sucrose. The suspension was centrifuged at 1200 x g for 10 min at 4 °C. […] This procedure was repeated twice. The final pellet was resuspended in 5 to 6 volumes of buffer, the protein concentration was determined according to the method of Bradford using bovine serum albumin as standard, and subsequently the preparation was frozen (-80 °C) in 1.5 mL portions containing about 1.5 mg protein/mL.
The test was performed with the radioligand [^3H]-(+)-pentazocine (42,5 Ci/mmol; Perkin Elmer). […] The incubation was terminated by rapid filtration through the presoaked filtermats using a cell harvester. After washing each well five times with 300 µl of water, the filtermats were dried at 95 °C. The bound radioactivity trapped on the filters was counted in the scintillation analyzer as described in the "General procedures" section. The non-specific binding was determined with 10 µM unlabeled (+)-pentazocine.

σ2 receptor = target: T3, σ2 receptor (Rattus norvegicus, UniProt Q5U3Y7); test: Receptor binding assay with [3H]-ditolylguanidine on rat liver membranes; conditions: for Ki: read-out: affinity to the σ2 receptor
T3 construct: tissue Harlan Winkelmann; host or cells: rat liver membranes
T3 sequence (Q5U3Y7 1-176): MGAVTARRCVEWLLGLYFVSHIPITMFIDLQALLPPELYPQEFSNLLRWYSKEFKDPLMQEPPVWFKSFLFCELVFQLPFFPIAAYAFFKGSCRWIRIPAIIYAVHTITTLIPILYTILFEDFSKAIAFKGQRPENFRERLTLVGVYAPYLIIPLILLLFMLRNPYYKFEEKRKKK
Description: as §1
Determination of affinity to the σ2 receptor
Two rat livers (Harlan Winkelmann, Borchen, Germany) were cut into smaller pieces and homogenized with the potter (500-800 rpm, 10 up-and-down strokes) in 6 volumes of cold 0.32 M sucrose. The suspension was centrifuged at 1200 x g for 10 min at 4 °C. The supernatant was separated and centrifuged at 31000 x g for 20 min at 4 °C. The pellet was resuspended in 5-6 volumes of buffer (50 mM TRIS, pH 8.0) and incubated at room temperature for 30 minutes. After the incubation, the suspension was centrifuged again at 31000 x g for 20 min at 4 °C. The final pellet was resuspended in 5 to 6 volumes of buffer, the protein concentration was determined according to the method of Bradford using bovine serum albumin as standard, and subsequently the preparation was frozen (-80 °C) in 1.5 mL portions containing about 2 mg protein/mL.
(50 Ci/mmol; ARC). […] The incubation was terminated by rapid filtration through the presoaked filtermats using a cell harvester. After washing each well five times with 300 µL of water, the filtermats were dried at 95 °C. Subsequently, the solid scintillator was placed on the filtermat and melted at 95 °C. The bound radioactivity trapped on the filters was counted in the scintillation analyzer as described in the "General procedures" section.

[2] = Ki mean of three experiments ± S.E.M.
[3] = 2 nM [3H]-(+)-pentazocine, guinea pig brain membranes
[4] = 3 nM [3H]-ditolylguanidine with 2 µM (+)-pentazocine
[5] = 3 nM [3H]-ditolylguanidine with 2 µM (+)-pentazocine, 180 min at room temperature, mean ± SEM
[6] = 2 nM [3H]-(+)-pentazocine, guinea pig brain membranes, 180 min at 37 °C, mean ± SEM, read-out: affinity to the σ1 receptor
[7] = 3 nM [3H]-ditolylguanidine with 2 µM (+)-pentazocine, values given in µM

T2 sequence (Q60492 whole entry): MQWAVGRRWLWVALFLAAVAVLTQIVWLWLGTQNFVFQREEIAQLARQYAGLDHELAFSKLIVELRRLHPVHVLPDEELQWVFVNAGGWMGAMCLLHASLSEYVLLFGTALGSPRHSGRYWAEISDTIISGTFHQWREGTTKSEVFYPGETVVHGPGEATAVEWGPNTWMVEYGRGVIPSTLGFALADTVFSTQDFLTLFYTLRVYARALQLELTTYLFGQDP
T1 sequence (Q13224 27-1484, other chains not shown): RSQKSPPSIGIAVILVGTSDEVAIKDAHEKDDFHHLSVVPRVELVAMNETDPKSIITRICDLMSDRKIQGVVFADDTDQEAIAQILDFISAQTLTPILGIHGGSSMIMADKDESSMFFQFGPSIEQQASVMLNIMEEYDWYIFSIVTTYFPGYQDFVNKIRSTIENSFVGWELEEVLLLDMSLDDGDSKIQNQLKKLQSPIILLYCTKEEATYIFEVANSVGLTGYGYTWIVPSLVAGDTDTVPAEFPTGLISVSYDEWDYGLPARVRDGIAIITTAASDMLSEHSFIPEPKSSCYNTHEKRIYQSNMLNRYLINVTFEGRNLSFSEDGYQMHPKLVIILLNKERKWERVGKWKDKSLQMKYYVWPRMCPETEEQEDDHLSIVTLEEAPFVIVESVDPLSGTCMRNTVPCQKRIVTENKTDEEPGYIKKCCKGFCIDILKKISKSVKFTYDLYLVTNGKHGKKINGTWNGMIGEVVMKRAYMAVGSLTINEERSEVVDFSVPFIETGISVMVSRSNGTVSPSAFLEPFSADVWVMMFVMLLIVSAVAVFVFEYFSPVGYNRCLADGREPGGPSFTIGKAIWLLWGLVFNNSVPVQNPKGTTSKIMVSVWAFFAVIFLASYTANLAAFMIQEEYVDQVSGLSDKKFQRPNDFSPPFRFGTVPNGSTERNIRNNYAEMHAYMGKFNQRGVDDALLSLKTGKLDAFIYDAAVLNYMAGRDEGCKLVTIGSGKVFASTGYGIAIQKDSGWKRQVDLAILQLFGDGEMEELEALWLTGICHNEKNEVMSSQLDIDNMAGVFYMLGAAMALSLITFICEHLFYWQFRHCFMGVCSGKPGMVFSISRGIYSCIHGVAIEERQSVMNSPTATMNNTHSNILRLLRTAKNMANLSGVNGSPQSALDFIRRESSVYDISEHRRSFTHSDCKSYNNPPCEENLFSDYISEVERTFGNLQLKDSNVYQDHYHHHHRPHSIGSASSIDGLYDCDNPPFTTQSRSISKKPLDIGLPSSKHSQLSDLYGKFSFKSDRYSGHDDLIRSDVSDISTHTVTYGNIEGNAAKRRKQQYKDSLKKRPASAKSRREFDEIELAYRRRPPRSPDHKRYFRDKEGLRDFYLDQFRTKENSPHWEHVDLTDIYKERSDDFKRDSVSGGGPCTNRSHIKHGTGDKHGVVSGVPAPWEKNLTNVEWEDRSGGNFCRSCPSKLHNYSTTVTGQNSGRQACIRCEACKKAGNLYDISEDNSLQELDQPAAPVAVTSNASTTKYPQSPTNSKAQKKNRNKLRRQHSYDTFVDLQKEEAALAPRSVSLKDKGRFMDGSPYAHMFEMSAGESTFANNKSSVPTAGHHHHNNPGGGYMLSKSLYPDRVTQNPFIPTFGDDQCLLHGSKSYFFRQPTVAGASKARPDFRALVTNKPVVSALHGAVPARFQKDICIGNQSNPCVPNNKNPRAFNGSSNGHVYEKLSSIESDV

OC1CN([C@H]2CC[C@@H](c3ccccc3)CC2)CCc2cc(OCc3ccccc3)ccc21 (relative stereo) [formula (19)]
Ki [1, 2]: 0.156 µM | inhibition of the σ1 receptor only at concentrations above (σ1 receptor; [3]): above 1 µM | inhibition of the σ2 receptor only at concentrations above (σ2 receptor; [4]): above 1 µM

Oc1ccc2c(c1)CCN([C@H]1CC[C@@H](c3ccccc3)CC1)CC2O (relative stereo) [formula (21)]
Ki [1, 2]: 0.00486 µM | Ki (σ2 receptor; [5]): 0.00856 ± 0.00433 µM

Oc1ccc2c(c1)CCN([C@H]1CC[C@H](c3ccccc3)CC1)CC2O (relative stereo) [formula (23)]
Ki [1, 2]: 0.0342 µM | Ki (σ1 receptor; [6]): 200 ± 62 nM | Ki (σ2 receptor; [5]): 0.00893 ± 0.00257 µM

COc1ccc2c(c1)CCN(CCCCc1ccccc1)CC2O (stereo not shown) [formula (1)]
Ki [1, 2]: 0.00512 µM | Ki (σ1 receptor; [6]): 182 ± 67 nM | Ki (σ2 receptor; [5]): 0.554 ± 0.221 µM

CCCCCCCCN1CCc2cc(OC)ccc2C(O)C1 (stereo not shown) [formula (2)]
Ki [1, 2]: 0.591 ± 0.15 µM | Ki (σ1 receptor): 44.6 ± 21.4 nM | Ki (σ2 receptor; [5]): 0.108 ± 0.09 µM

COc1ccc2c(c1)CCN(C1CCC(c3ccccc3)CC1)CC2O (stereo not shown) [formula (3)]
Ki [1, 2]: 0.192 ± 0.026 µM | Ki (σ1 receptor; [6]): 33.1 ± 29.8 nM | Ki (σ2 receptor; [5]): 0.0816 ± 0.0444 µM

Oc1ccc2c(c1)CCN(CCCCc1ccccc1)CC2O (stereo not shown) [formula (4)]
Ki [1, 2]: 0.0153 ± 0.0012 µM

COc1ccc2c(c1)CCN(CCCCCc1ccccc1)CC2O (stereo not shown) [formula (5)]
Ki [1, 2]: 0.325 µM | Ki (σ1 receptor; [6]): 65.3 ± 12.3 nM | Ki (σ2 receptor; [5]): 0.305 µM

COc1ccc2c(c1)CCN(CCCC(=O)c1ccc(F)cc1)CC2O (stereo not shown) [formula (6)]
Ki [1, 2]: 0.258 µM | inhibition of the σ1 receptor only at concentrations above (σ1 receptor; [3]): above 1 µM | inhibition of the σ2 receptor only at concentrations above (σ2 receptor; [4]): above 1 µM

COc1ccc2c(c1)CCN(CCCCSc1ccccc1)CC2O (stereo not shown) [formula (7)]
Ki ([1]; values given in µM): 1.04 µM | Ki (σ1 receptor; [6]): 94.7 ± 51 nM | Ki (σ2 receptor; [5]): 0.308 ± 0.116 µM

COc1ccc2c(c1)CCN(CCCSc1ccccc1)CC2O (stereo not shown) [formula (8)]
Ki ([1]; values given in µM): 1.88 µM | Ki (σ1 receptor; [6]): 155 nM | Ki (σ2 receptor; [7]): 1.52 µM

OC1CN(CCCCc2ccccc2)CCc2cc(OCc3ccccc3)ccc21 (stereo not shown) [formula (9)]
Ki [1, 2]: 0.249 ± 0.063 µM | Ki (σ1 receptor; [6]): 293 ± 101 nM | Ki (σ2 receptor; [7]): 1.05 µM

O=S(=O)(CCCN1CCc2cc(OCc3ccccc3)ccc2C(O)C1)c1ccccc1 (stereo not shown) [formula (10)]
Ki [1, 2]: 0.0452 µM | Ki (σ1 receptor; [6]): 349 nM | Ki (σ2 receptor; [7]): 3.04 µM

COc1ccc2c(c1)CCN(CCCC1(c3ccc(F)cc3)OCC(C)(C)CO1)CC2O (stereo not shown) [formula (11)]
Ki [1, 2]: 0.107 µM | Ki (σ1 receptor; [6]): 45.6 nM | Ki (σ2 receptor; 3 nM [3H]-[…] with 2 µM (+)-pentazocine, 180 min at room temperature, mean ± SEM): 0.103 µM

OC1CN(CCCSc2ccccc2)CCc2cc(OCc3ccccc3)ccc21 (stereo not shown) [formula (12)]
Ki [1, 2]: 0.046 µM | Ki (σ1 receptor; [6]): 376 nM | Ki (σ2 receptor; [5]): 0.653 µM

CC(C)(C)c1ccc(C(=O)CCCN2CCc3cc(OCc4ccccc4)ccc3C(O)C2)cc1 (stereo not shown) [formula (13)]
Ki [1, 2]: 0.099 µM | Ki (σ1 receptor; [6]): 604 nM | Ki (σ2 receptor; [7]): 6.43 µM

COc1ccc2c(c1)CCN(CCCC(=O)c1ccc(C(C)(C)C)cc1)CC2O (stereo not shown) [formula (14)]
Ki [1, 2]: 0.0604 µM | Ki (σ1 receptor; [6]): 44.3 ± 14.1 nM | Ki (σ2 receptor; [5]): 0.267 ± 0.055 µM

CC1(C)COC(CCCN2CCc3cc(OCc4ccccc4)ccc3C(O)C2)(c2ccc(F)cc2)OC1 (stereo not shown) [formula (15)]
Ki ([1]; values given in µM): 1.24 µM | inhibition of the σ1 receptor only at concentrations above (σ1 receptor; [3]): above 1 µM | inhibition of the σ2 receptor only at concentrations above (σ2 receptor; [4]): above 1 µM

CN(Cc1ccccc1)C(=O)CN1CCc2cc(O)ccc2C(O)C1 (stereo not shown) [formula (16)]
Ki ([1]; values given in µM): 7.68 µM | Ki (σ1 receptor; [6]): 172 nM | Ki (σ2 receptor; [7]): 1.58 µM

C[C@H]1[C@H](O)c2ccc(O)cc2CCN1CCCCc1ccccc1 [formula (29)]
Ki [1, 2]: 0.171 µM | Ki (σ1 receptor; [6]): 40.8 nM

C[C@@H]1[C@@H](O)c2ccc(O)cc2CCN1CCCCc1ccccc1 [formula (30)]
Ki [1, 2]: 0.0164 µM | Ki (σ1 receptor; [6]): 846 nM

— patent EP2246331A1, “NR2B-selective NMDA-receptor antagonists” (Westfälische Wilhelms-Universität Münster, priority 2009, dated 2010)
